Reference: patent US9486524B2, “Composition for eliciting a specific CTL response, comprising a lympho-ablative compound and a molecule that contains antigenic sequences and targets professional antigen presenting cells” (priority 2006, dated 2016)

Columns and labels:
Format in all cases: in vivo, C57BL/6 mice
[1] = tested on: peripheral blood lymphocytes (CD4+, CD8+, CD49d+ and B220+); assay: Peripheral blood lymphocyte depletion induced by immunosuppressive treatment (Example 2); details: after onset of treatment; Fludarabine 100 mg/kg/day ip for 6 days
Description: Kinetic of the number of lymphocytes (CD4+, CD8+, CD49d+ and B220+) in peripheral blood following i.p. injection of 100 mg/kg/day Fludarabine for 6 days or following a single i.p. injection of 20 mg/kg ATG. Controls are injected with PBS or with 20 mg/kg of normal rabbit serum (NRS)
(§1) Blood sampling was performed by tail bleeding.
(§2) Blood, lymph node cells and splenocytes were processed according to previously described methods (28, 29) for numeration and flow cytometry assisted phenotyping. Blood lymphocytes were counted using Trypan blue.
Mouse ATG were prepared by injecting a rabbit sc with 5×10^8 thymocytes sampled on 6-weeks old C57BL/6 mice. This immunization was boosted 14 days later with an iv injection of identical material. Seven days later the animal was bled and serum IgG were purified on immobilized protein G column (Pierce). Purity was controlled by SDS PAGE analysis and quantity was estimated by the Bradford method with known concentration rabbit IgG as standards. Rabbit ATG was used at a concentration of 20 mg/kg with a single injection. As a control, normal rabbit serum was used.
Fludarabine (Sigma) was used at a concentration of 100 mg/kg/day for 6 days. Monoclonal antibodies: anti-CD4-APC, anti-CD8-PerCP, anti-B220-FITC and anti-CD49d (Pan NK)-PE were obtained from BD Biosciences.

[2] = tested on: CD4, CD8, CD49d and B220 cells in the spleen and maxillary lymph nodes; assay: Lymphocyte depletion in lymphoid organs, phenotyping of spleen and maxillary lymph nodes (Example 2, Table 2); details: 14 days after onset of treatment, ATG 20 mg/kg single ip, Fludarabine 100 mg/kg/day ip 6 days
Description: as §1, §2
The blood compartment represents only 1 to 2% on the total body lymphoid mass. The Inventors therefore monitored lymphocyte depletion by phenotyping for T and B cells, spleen and lymph nodes 14 days after onset of immunosuppression. Compared to controls (PBS and NRS) Fludarabine- and ATG-based immunosuppressive therapies induced modifications of lymphocyte proportion in lymphoid organs (Table 2).
Peripheral lymphoid organs were sampled 14 days after onset of immunosuppressive treatment administration. Values presented are the percentages of CD4, CD8, CD49d and B220 cells observed in the spleen and maxillary lymph nodes, and the absolute values of CD4, CD8, CD49d and B220 by reference to the number of lymphocytes contained in each organ.

MCa32A cells = assay: Tumor rejection model, MC38 murine colon adenocarcinoma cells expressing CEA (Example 2)
Description: as §1
MC32aCEA cells expressing CEA protein were obtained from Pr. W. Zimermann (LTI, Munich). These cells are derived from the MC38 murine colon adenocarcinoma (48).

[3] = tested on: CD4, CD8 and B220 cells in the spleen and lymph nodes; assay: Lymphocyte depletion in lymphoid organs, phenotyping of spleen and lymph nodes (Example 1, Table 1); details: 10 days after onset of immunosuppressive treatment; ATG 20 mg/kg single ip, fludarabine 200 mg/kg/day ip 6 days
Description: as §1
Blood, lymph node cells and splenocytes were processed according to previously described methods (28, 29) for numeration and flow cytometry assited phenotyping. Blood lymphocytes were counted using Türk blue.
The blood compartment represents only 1 to 2% on the total body lymphoid mass. Lymphocyte depletion by phenotyping for T and B cells, spleen and lymph nodes 10 days after onset of immunosuppression has been monitored. Similarly to the situation in the blood compartment, ATG- and fludarabine-based immunosuppressive therapies induced a depletion of the T lymphocyte pool in lymphoid organs (Table 1).
Peripheral lymphoid organs were sampled 10 days after onset of immunosuppressive treatment administration. Values presented are the percentages of CD4, CD8 and B220 cells observed in the spleen and lymph nodes.

[4] = tested on: CEA-specific IFN-γ producing CD8+ cells; assay: γ-IFN ELISpot assay of CEA-specific CD8+ cells after immunization (Example 2)
Description: […] Seven days after last immunization, CEA-specific IFN-γ producing CD8+ cells were detected by ex vivo ELISpot assay using 1 μg/ml CEA pepscan. Data are expressed as the median numbers of γ-IFN spot forming colonies, SFC (n=3).
ATG- or Fludarabine-based immunosuppressive treatments were applied to animals 7 days prior to prime boost immunization with recombinant proteins. Immunizations performed iv with equimolar amounts of indicated recombinant proteins (50 μg for CyaAs, 19.2 μg for His-tag CEA) in presence of 10 μg CpG, were boosted id 7 days later with 10 μg of similar material (3.8 μg for His-tag CEA) and 2 μg of CpG. Seven days after last immunization, CEA-specific IFN-γ producing CD8+ cells were detected by ex vivo ELISpot assay using 1 μg/ml CEA pepscan. Data are expressed as the median numbers of γ-IFN spot forming colonies, SFC (n=2).
Multiscreen filtration plates (96 wells; Millipore, France) were coated with 4 μg/ml of rat anti-mouse gamma interferon (IFN-γ) antibody (clone R4-6A2; PharMingen, San Diego, Calif.), overnight at room temperature. Spleen cells from immunized mice were added to the wells and incubated for 20 h with or without CEA pepscan at 1 μg/ml. […] The number of γ-IFN producing cells was determined by counting the number of spot-forming colonies (SFC) in each well (C.T.L., Germany), and the results were expressed as number of SFC per 1×10^6 splenocytes (20).

Nc1nc(F)nc2c1ncn2[C@@H]1O[C@H](CO)[C@@H](O)[C@@H]1O [Fludarabine]
time for T cell values to return to control groups [1]: ≤ 7 days
B220+ absolute value, Spleen [2]: 8 10^6 cells/ml
B220+ percentage, Spleen [2]: 42.4%
CD4+ absolute value, Spleen [2]: 3.8 10^6 cells/ml
CD4+ percentage, Spleen [2]: 20.4%
CD8+ absolute value, Spleen [2]: 2.5 10^6 cells/ml
CD8+ percentage, Spleen [2]: 13.4%
CD49d+ absolute value, Spleen [2]: 1.4 10^6 cells/ml
CD49d+ percentage, Spleen [2]: 7.5%
B220+ absolute value, Lymph nodes ([2]; maxillary lymph nodes): 0.3 10^6 cells/ml
B220+ percentage, Lymph nodes ([2]; maxillary lymph nodes): 30.2%
CD4+ absolute value, Lymph nodes ([2]; maxillary lymph nodes): 0.3 10^6 cells/ml
CD4+ percentage, Lymph nodes ([2]; maxillary lymph nodes): 31.3%
CD8+ absolute value, Lymph nodes ([2]; maxillary lymph nodes): 0.3 10^6 cells/ml
CD8+ percentage, Lymph nodes ([2]; maxillary lymph nodes): 35.3%
CD49d+ absolute value, Lymph nodes ([2]; maxillary lymph nodes): 0.03 10^6 cells/ml
CD49d+ percentage, Lymph nodes ([2]; maxillary lymph nodes): 3.8%
size of tumors relative to the other groups (smaller) (MCa32A cells; at the time of CyaA-based immunotherapy): 20 times
survival median of mock-treated animals (MCa32A cells; immunosuppressive treatment 3 days after tumor inoculation, no CEA immunization): 21 to 25 days
percentage of B220+ cells, Lymph nodes [3]: 32.4%
percentage of B220+ cells, Spleen [3]: 54.3%
percentage of CD4+ cells, Lymph nodes [3]: 37.8%
percentage of CD4+ cells, Spleen [3]: 21.9%
percentage of CD8+ cells, Lymph nodes [3]: 20.8%
percentage of CD8+ cells, Spleen [3]: 5.3%

B1: His-Tag-CEA: histidine-tagged full length CEA protein, used as control, formulated with CpG (protein, UniProt P06731 1-702, looked up)
chain: MESPSAPPHRWCIPWQRLLLTASLLTFWNPPTTAKLTIESTPFNVAEGKEVLLLVHNLPQHLFGYSWYKGERVDGNRQIIGYVIGTQQATPGPAYSGREIIYPNASLLIQNIIQNDTGFYTLHVIKSDLVNEEATGQFRVYPELPKPSISSNNSKPVEDKDAVAFTCEPETQDATYLWWVNNQSLPVSPRLQLSNGNRTLTLFNVTRNDTASYKCETQNPVSARRSDSVILNVLYGPDAPTISPLNTSYRSGENLNLSCHAASNPPAQYSWFVNGTFQQSTQELFIPNITVNNSGSYTCQAHNSDTGLNRTTVTTITVYAEPPKPFITSNNSNPVEDEDAVALTCEPEIQNTTYLWWVNNQSLPVSPRLQLSNDNRTLTLLSVTRNDVGPYECGIQNELSVDHSDPVILNVLYGPDDPTISPSYTYYRPGVNLSLSCHAASNPPAQYSWLIDGNIQQHTQELFISNITEKNSGLYTCQANNSASGHSRTTVKTITVSAELPKPSISSNNSKPVEDKDAVAFTCEPEAQNTTYLWWVNGQSLPVSPRLQLSNGNRTLTLFNVTRNDARAYVCGIQNSVSANRSDPVTLDVLYGPDTPIISPPDSSYLSGANLNLSCHSASNPSPQYSWRINGIPQQHTQVLFIAKITPNNNGTYACFVSNLATGRNNSIVKSITVSASGTSPGLSAGATVGIMIGVLVGVALI
modifications: full-length His tag
notes: histidine-tagged full length CEA protein, used as control, formulated with CpG
CEA-specific cellular immune responses upon immunization after immunosuppressive treatment ([4]; compared with CyaA-CEAA3B3 + CpG, prime-boost with CpG): Lower CEA-specific cellular immune responses were detected
cellular immune response characterized by γ-IFN secretion ([4]; one single iv administration, with CpG adjuvant, no immunosuppression): neither CyaAΔ-CEAA3B3 nor His-tag-CEA protein formulated with an adjuvant such as CpG, were able to mount a cellular immune response
